Laboratory results from patent US20260001849A1, “NOVEL B0AT1 INHIBITOR” (MITSUBISHI TANABE PHARMA CORPORATION, priority 2023, published 2026).
pIC50: −log10 of the molar value.

target: T1, Human BOAT1 (Homo sapiens, UniProt Q695T7); assay: hBOAT1 inhibitory test (phenylalanine uptake); assay type: cell-based; conditions: Human BOAT1 stable expression CHO cells; [3H]-L-phenylalanine uptake, phenylalanine 0.25 mM; radioactivity after 100 to 200 min; read-out: hB0AT1 IC50
T1 construct: expressed in transfected cells
T1 sequence (Q695T7 1-634): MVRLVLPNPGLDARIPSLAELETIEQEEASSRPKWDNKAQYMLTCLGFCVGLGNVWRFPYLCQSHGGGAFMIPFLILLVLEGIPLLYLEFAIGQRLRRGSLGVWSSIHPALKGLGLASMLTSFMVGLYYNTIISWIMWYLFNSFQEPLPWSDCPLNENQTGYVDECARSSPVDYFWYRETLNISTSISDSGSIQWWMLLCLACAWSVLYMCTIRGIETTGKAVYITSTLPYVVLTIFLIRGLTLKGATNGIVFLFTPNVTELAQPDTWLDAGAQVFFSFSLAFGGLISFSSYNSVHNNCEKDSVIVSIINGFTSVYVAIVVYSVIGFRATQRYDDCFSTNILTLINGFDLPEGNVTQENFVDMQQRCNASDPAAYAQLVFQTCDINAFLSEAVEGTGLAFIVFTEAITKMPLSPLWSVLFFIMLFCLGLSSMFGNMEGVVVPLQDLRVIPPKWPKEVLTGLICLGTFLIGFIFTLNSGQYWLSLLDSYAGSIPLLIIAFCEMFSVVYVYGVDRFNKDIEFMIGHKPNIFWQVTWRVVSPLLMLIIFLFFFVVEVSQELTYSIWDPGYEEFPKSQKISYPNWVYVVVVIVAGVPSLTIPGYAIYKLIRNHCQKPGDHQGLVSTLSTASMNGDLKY
Experimental: A test compound dissolved in dimethyl sulfoxide (DMSO) was added to a 96 well plate for solid phase radioactivity measurement containing a scintillator at the bottom of the well (final concentration of DMSO 0.5%). DMSO alone as a control and DMSO containing N-(4-bromophenyl)-3,5-dichloro-2-hydroxybenzamide (final concentration […]) for the measurement of BOAT1 non-specific uptake were similarly added at 0.5 μL per well. Human BOAT1 stable expression CHO cells suspended in a buffer (buffer containing 96 mM sodium chloride, 2 mM potassium chloride, 1.8 mM calcium chloride, 1 mM magnesium chloride, 0.01% bovine serum albumin, and 10 mM 2-[4-(2-hydroxyethyl)-1-piperazinyl]ethanesulfonic acid) were added by 90 μL to 75000 cells/well. After standing at ordinary temperature for 30 min or longer, the cells were subjected to a phenylalanine uptake experiment. A buffer containing L-phenylalanine and [3,4,5-3H]-L-phenylalanine was added by 10 μL per well (final concentration of phenylalanine 0.25 mM), and the radioactivity of the plate bottom surface at ordinary temperature was measured with a scintillation counter over time, and the radioactivity value after 100 to 200 min was analyzed.

pIC50	SMILES
6.72	O=C(O)CCc1nc2c(s1)CN(C(=O)CNC(=O)/C=C/c1ccc(C(F)(F)F)cc1)CC2 [I-200, 3-[5-[2-[[(E)-3-[4-(trifluoromethyl)phenyl]prop-2-enoyl]amino]acetyl]-6,7-dihydro-4H-[1,3]thiazolo[5,4-c]pyridin-2-yl]propanoic acid]
6.18	CCC(F)(F)c1ccc(/C=C/C(=O)NCC(=O)N2CCc3cc(CC(=O)O)ccc3C2)cc1 [I-227]
6.35	O=C(O)Cc1ccc2c(c1)CN(C(=O)CNC(=O)/C=C/c1ccc(C(F)(F)F)cc1)CC2 [I-168]
6.58	CC(F)(F)c1ccc(/C=C/C(=O)NCC(=O)N2CCc3cc(CC(=O)O)ccc3C2)cc1 [I-211]
6.65	O=C(O)Cc1ncc2c(n1)CCN(C(=O)CNC(=O)/C=C/c1ccc(C(F)(F)F)cc1)C2 [I-208]
6.48	CC(C)(C)OC(=O)C1CCN(c2ccc3c(c2)CCN(C(=O)CNC(=O)/C=C/c2ccc(C(F)(F)F)cc2)C3)C1 (stereo not shown) [I-26]
6.59	Cc1nn(CC(=O)O)c2c1CN(C(=O)CNC(=O)/C=C/c1ccc(C(F)(F)F)cc1)CC2 [I-219]
6.34	O=C(O)CCCCc1ccc2c(c1)CCN(C(=O)CNC(=O)/C=C/c1ccc(C(F)(F)F)cc1)C2 [I-228]
6.00	CC(C)(C)OC(=O)CCc1ccc2c(c1)CCN(C(=O)CNC(=O)/C=C/c1ccc(C(F)(F)F)cc1)C2 [I-40]
6.91	COC(=O)CCc1cc2c(s1)CN(C(=O)CNC(=O)/C=C/c1ccc(C(F)(F)F)cc1)CC2 [I-13]

Continued, compound first:

SMILES	pIC50
O=C(/C=C/c1ccc(C(F)(F)F)cc1F)NCC(=O)N1CCc2cc(Cc3nn[nH]n3)cc(Cl)c2C1 [I-378, (E)-N-[2-[8-chloro-6-(1,2,3λ4,4-tetraazacyclopenta-2,4-dien-5-ylmethyl)-3,4-dihydro-1H-isoquinolin-2-yl]-2-oxoethyl]-3-[2-fluoro-4-(trifluoromethyl)phenyl]prop-2-enamide]	6.63
O=C(O)CCc1cccc2c1CCN2C(=O)CNC(=O)/C=C/c1ccc(C(F)(F)F)cc1F [I-245]	7.35
O=C(O)Cc1cc(Cl)c2c(c1)CCN(C(=O)CNC(=O)/C=C/c1ccc(I)cc1)C2 [I-155]	7.08
COC(=O)Cc1cc(F)c2c(c1)CCN(C(=O)CNC(=O)/C=C/c1ccc(C(F)(F)F)cc1F)C2 [I-118]	7.38
CNC(=O)Cc1nc2c(s1)CCN(C(=O)CNC(=O)/C=C/c1ccc(C(F)(F)F)cc1F)C2 [I-376]	7.11
N#Cc1c(CC(=O)O)ccc2c1CCN(C(=O)CNC(=O)/C=C/c1ccc(I)cc1F)C2 [I-203]	7.25
C[C@@H]1CN(C(=O)CNC(=O)/C=C/c2ccc(C(F)(F)F)cc2F)[C@@H](c2ccc(C3CC3)cc2)CN1CCC(=O)O [I-382, 3-[(2R,5S)-5-(4-cyclopropylphenyl)-4-[2-[[(E)-3-[2-fluoro-4-(trifluoromethyl)phenyl]prop-2-enoyl]amino]acetyl]-2-methylpiperazin-1-yl]propanoic acid]	7.20
O=C(/C=C/c1ccc(C(F)(F)F)cc1F)NCC(=O)N1CCN(C[C@H]2C[C@@H](C(=O)O)C2)CC1c1ccc(Cl)cc1 (mixture of isomers) [I-249, 3-[[3-(4-chlorophenyl)-4-[2-[[(E)-3-[2-fluoro-4-(trifluoromethyl)phenyl]prop-2-enoyl]amino]acetyl]piperazin-1-yl]methyl]cyclobutane-1-carboxylic acid]	7.02
C[C@@H]1CN(CCCC(=O)O)C[C@H](c2ccccc2)N1C(=O)CNC(=O)/C=C/c1ccc(C(F)(F)F)cc1F [I-371]	5.47
O=C(O)Cc1ccc2c(c1)CCN(C(=O)CNC(=O)/C=C/c1ccc(C(F)(F)F)cc1Cl)C2 [I-188]	6.94
COC(=O)c1cccc(C2CCCN(C(=O)CNC(=O)/C=C/c3ccc(C(F)(F)F)cc3F)C2)c1 (stereo not shown) [I-61]	5.78
COC(=O)c1cccc(C2CN(C(=O)CNC(=O)/C=C/c3ccc(C(F)(F)F)cc3F)CCN2C)c1 (stereo not shown) [I-62]	6.33
C[C@@H]1CN(C(=O)CNC(=O)/C=C/c2ccc(C(F)(F)F)cc2F)[C@@H](c2ccccc2)CN1CCCc1nn[nH]n1 [I-379, (E)-3-[2-fluoro-4-(trifluoromethyl)phenyl]-N-[2-[(2S,5R)-4-[3-(1,2,3λ4,4-tetraazacyclopenta-2,4-dien-5-yl)propyl]-5-methyl-2-phenylpiperazin-1-yl]-2-oxoethyl]prop-2-enamide]	5.60

same assay, conditions: Human BOAT1 stable expression CHO cells; phenylalanine uptake, phenylalanine 0.25 mM; read-out: hB0AT1 IC50

pIC50	SMILES
7.47	O=C(/C=C/c1ccc(C(F)(F)F)cc1)NCC(=O)N1CCn2ncc(CCC(=O)N3CCCC3)c2C1 [I-274]
7.77	NC(=O)Cc1cc(F)c2c(c1)CCN(C(=O)CNC(=O)/C=C/c1ccc(C(F)(F)F)cc1)C2 [I-276]
7.52	CNC(=O)Cc1ccc2c(c1)CCN(C(=O)CNC(=O)/C=C/c1ccc(C(F)(F)F)cc1)C2 [I-277]
7.11	CN(C)C(=O)CCc1cnn2c1CN(C(=O)CNC(=O)/C=C/c1ccc(C(F)(F)F)cc1)CC2 [I-275]
7.40	NC(=O)Cc1ccc2c(c1)CN(C(=O)CNC(=O)/C=C/c1ccc(C(F)(F)F)cc1)CC2 [I-278]
7.68	CN(C)C(=O)Cc1cc(Cl)c2c(c1)CCN(C(=O)CNC(=O)/C=C/c1ccc(C(F)(F)F)cc1F)C2 [I-279]

Second part, the compound before the results:

SMILES	pIC50
CONC(=O)Cc1cc(Cl)c2c(c1)CCN(C(=O)CNC(=O)/C=C/c1ccc(C(F)(F)F)cc1F)C2 [I-281]	8.15
O=C(/C=C/c1ccc(C(F)(F)F)cc1F)NCC(=O)N1CCCC(N2CC[C@H](C(=O)O)C2)C1 (stereo partly shown) [I-360]	5.54
O=C(/C=C/c1ccc(C(F)(F)F)cc1F)NCC(=O)N1CCN(CC2CC(C(=O)O)C2)CC1c1ccc(Cl)cc1 (single isomer, unassigned) [I-296, 3-[[3-(4-chlorophenyl)-4-[2-[[(E)-3-[2-fluoro-4-(trifluoromethyl)phenyl]prop-2-enoyl]amino]acetyl]piperazin-1-yl]methyl]cyclobutane-1-carboxylic acid]	6.13
C[C@@H]1CN(C(=O)CNC(=O)/C=C/c2ccc(C(F)(F)F)cc2F)[C@@H](c2cccs2)CN1CCCC(=O)O [I-357]	6.97
O=C(O)CCCN1CCN(C(=O)CNC(=O)/C=C/c2ccc(C(F)(F)F)cc2F)C(c2cccc(C(F)(F)F)c2)C1 (stereo not shown) [I-262]	6.90
C[C@@H]1CN(C(=O)CNC(=O)/C=C/c2ccc(C(F)(F)F)cc2F)[C@@H](c2ccccc2)CN1CCC(C)(C)C(=O)O [I-344]	6.91
O=C(O)CCCN1CCN(C(=O)CNC(=O)/C=C/c2ccc(C(F)(F)F)cc2F)C(C2CCCCC2)C1 (stereo not shown) [I-365]	7.16
O=C(O)CCCN1CCN(C(=O)CNC(=O)/C=C/c2ccc(C(F)(F)F)cc2F)C(c2cccc(Br)c2)C1 (single isomer, unassigned) [I-293, 4-[3-(3-bromophenyl)-4-[2-[[(E)-3-[2-fluoro-4-(trifluoromethyl)phenyl]prop-2-enoyl]amino]acetyl]piperazin-1-yl]butanoic acid]	7.41
O=C(/C=C/c1ccc(C(F)(F)F)cc1F)NCC(=O)N1CCc2cc(CC(=O)NCCO)cc(Cl)c2C1 [I-280]	7.72
O=C(O)CCCN1CCN(C(=O)CNC(=O)/C=C/c2ccc(C(F)(F)F)cc2F)C(c2ccc(Cl)cc2)C1 (single isomer, unassigned) [I-294, 4-[3-(4-chlorophenyl)-4-[2-[[(E)-3-[2-fluoro-4-(trifluoromethyl)phenyl]prop-2-enoyl]amino]acetyl]piperazin-1-yl]butanoic acid]	6.58
C[C@@H]1CN(C(=O)CNC(=O)/C=C/c2ccc(C(F)(F)F)cc2F)[C@@H](c2ccccc2)CN1CC(C)(C)C(=O)O [I-346]	5.98
